The structures appear in SMILES notation.

The assay concerns the target SMYD3 (Homo sapiens (Human), UniProt Q9H7B4). The assay is described as follows: SMYD3 biochemical assay (SPA, 3H-SAM methylation of MEKK2 protein substrate). The note with it: read-out: SMYD3 Biochem IC50 (μM)*. The method in brief:
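Native full-length human SMYD3 (E. coli-expressed, tags removed) was preincubated with compound for 30 min at room temperature in 25 mM Tris-Cl pH 8.0, 1 mM TCEP, 0.005% BSG, 0.005% Tween 20. Reaction was started with 3H-SAM plus GST-MEKK2, quenched with 100 uM unlabeled SAM, and read by SPA scintillation counting.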
As for `C[C@H]1C[C@H](NC(=O)c2cc(C3CC3)on2)CCN1S(=O)(=O)CCc1ccccc1` [compound 326, 5-cyclopropyl-N-((2S,4R)-2-methyl-1-(phenethylsulfonyl)piperidin-4-yl)isoxazole-3-carboxamide], the IC50 is greater than 10 µM. On to `COCCCS(=O)(=O)N1CC[C@@H](NC(=O)c2cc(C3CC3)on2)C[C@@H]1C` [compound 327, 5-cyclopropyl-N-((2S,4R)-1-((3-methoxypropyl)sulfonyl)-2-methylpiperidin-4-yl)isoxazole-3-carboxamide], for which the IC50 was greater than 10 µM. The same measure for `CC1CN(C(=O)CCCN)CC(C)C1NC(=O)c1cc(C2CC2)on1` (stereo not shown) [compound 332, N-(1-(4-aminobutanoyl)-3,5-dimethylpiperidin-4-yl)-5-cyclopropylisoxazole-3-carboxamide]: 2.53 µM.

Turning to `C[C@H]1C[C@@H](NC(=O)c2cc(C3CC3)on2)CCN1C(=O)CC(CN)c1ccccc1` (stereo partly drawn) [compound 338, N-((2S,4S)-1-(4-amino-3-phenylbutanoyl)-2-methylpiperidin-4-yl)-5-cyclopropylisoxazole-3-carboxamide], the IC50 was determined as 0.842 µM. On to `C[C@H]1C[C@H](NC(=O)c2cc(C3CC3)on2)CCN1C(=O)CC(CN)c1ccccc1` (stereo partly drawn) [compound 339, N-((2S,4R)-1-(4-amino-3-phenylbutanoyl)-2-methylpiperidin-4-yl)-5-cyclopropylisoxazole-3-carboxamide], for which the IC50 came out at 4.67 µM. Turning to `C[C@@H]1C[C@H](NC(=O)c2cc(C3CC3)on2)CCN1C(=O)C1CCCC(CN)C1` (stereo partly drawn) [compound 342, N-((2R,4R)-1-(3-(aminomethyl)cyclohexane-1-carbonyl)-2-methylpiperidin-4-yl)-5-cyclopropylisoxazole-3-carboxamide], the IC50 turned out to be 0.552 µM. Then `C[C@@H]1C[C@@H](NC(=O)c2cc(C3CC3)on2)CCN1C(=O)C1CCCC(CN)C1` (stereo partly drawn) [compound 343, N-((2R,4S)-1-(3-(aminomethyl)cyclohexane-1-carbonyl)-2-methylpiperidin-4-yl)-5-cyclopropylisoxazole-3-carboxamide], with 1.07 µM. With `C[C@@H]1C[C@@H](NC(=O)c2cc(C3CC3)on2)CCN1S(=O)(=O)CCc1ccccc1` [compound 344, 5-cyclopropyl-N-((2R,4S)-2-methyl-1-(phenethylsulfonyl)piperidin-4-yl)isoxazole-3-carboxamide], the IC50 is greater than 10 µM. The same measure for `C[C@@H]1C[C@@H](NC(=O)c2cc(C3CC3)on2)CCN1S(=O)(=O)CCC(F)(F)F` [compound 345, 5-cyclopropyl-N-((2R,4S)-2-methyl-1-((3,3,3-trifluoropropyl)sulfonyl)piperidin-4-yl)isoxazole-3-carboxamide]: greater than 10 µM. The same measure for `C[C@H]1C[C@H](NC(=O)c2cc(C3CC3)on2)CCN1S(=O)(=O)N(C)C` [compound 346, 5-cyclopropyl-N-((2S,4R)-1-(N,N-dimethylsulfamoyl)-2-methylpiperidin-4-yl)isoxazole-3-carboxamide]: greater than 10 µM; for `CCCCS(=O)(=O)N1CC[C@@H](NC(=O)c2cc(C3CC3)on2)C[C@@H]1C` [compound 347, N-((2S,4R)-1-(butylsulfonyl)-2-methylpiperidin-4-yl)-5-cyclopropylisoxazole-3-carboxamide]: 8.02 µM. Then `C[C@@H]1C[C@@H](NC(=O)c2cc(C3CC3)on2)CCN1S(=O)(=O)c1ccccc1` [compound 353, 5-cyclopropyl-N-((2R,4S)-2-methyl-1-(phenylsulfonyl)piperidin-4-yl)isoxazole-3-carboxamide], with 3.98 µM; and `C[C@@H]1C[C@@H](NC(=O)c2cc(C3CC3)on2)CCN1S(=O)(=O)c1cccc(C#N)c1` [compound 355, N-((2R,4S)-1-((3-cyanophenyl)sulfonyl)-2-methylpiperidin-4-yl)-5-cyclopropylisoxazole-3-carboxamide], with 0.278 µM.

(Values after patent US10577363B2, “Substituted piperidine compounds” (EPIZYME, INC., priority 2014, dated 2020).)
